Where two headings read alike, the source gives them in different places.
Tests used:
[1] = cited from earlier work
protozoal enzymes = settings: versus host cells; cited from earlier work

Compound	solubility in water (in words) [1]	solubility in water ([1]; room temperature)	solubility in 2-pyrrolidone (45° C.)	solubility in 2-pyrrolidone (room temperature)	solubility in NMP (NMP, room temperature)	selectivity for inhibiting folate synthesis in protozoal enzymes (protozoal enzymes)	solubility in acidic or basic aqueous medium (acidic or basic aqueous medium, room temperature)
Nc1ccc(S(=O)(=O)Nc2ncccn2)cc1 [Sodium sulfadiazine]	soluble in water	–	–	–	–	–	–
COc1cc(Cc2cnc(N)nc2N)cc(OC)c1OC [Trimethoprim, 5-[(3,4,5-trimethoxyphenyl)methyl]-2,4-pyrimidinediamine]	not soluble in water	about 0.04 g/100 ml	about 2.0 g/10 ml	about 0.4 g/10 ml	about 1.6 g/10 ml	high selectivity	–
Nc1ccc(S(=O)(=O)Nc2ncccn2)cc1 [sulfadiazine, 4-amino-N-2-pyrimidinylbenzenesulfonamide]	–	–	–	–	–	–	at least 2.3 g/10 ml

Reference: US5707996A, “Pharmaceutical solution and methods for preparation thereof” (Macleod Pharmaceuticals, Inc., priority 1995, dated 1998)
